Test results reported in patent publication US6608032B1, “Medicinal compositions” (Takara Shuzo Co., Ltd., priority 1999, dated 2003).
Where two headings read alike, the source gives them in different places.

Experiments:
[1] = tested on: enzymes involved in the synthesis of prostaglandin E2 from arachidonic acid; test: Prostaglandin E2 generation from arachidonic acid, sample added directly to crude enzyme fraction; format: biochemical; conditions: 1 μL of 100 mM agarobiose, 100 mM agarohexaose, 10 mM DGE or 13 mM nimesulide added to 100 μL crude enzyme fraction; FIG. 15
Method: 2.5 μL of 200 mM aqueous solution of glutathione, 2.5 μL of a suspension containing L-adrenaline at a concentration of 200 mM in water, and 1 μL of 100 mM aqueous solution of agarobiose, 100 mM aqueous solution of agarohexaose or 10 mM aqueous solution of DGE as a sample were added to 100 μL of the control sample from the crude enzyme fraction prepared in Example 15. 1 μL of water was added as a negative control. 1 μL of 13 mM nimesulide (Cayman, 70640) solution was added as a positive control. 1 μL of 3 mM arachidonic acid solution was then added to start the reaction. The mixture was reacted at 37° C. for 5 minutes. The reaction was stopped by heating at 100° C. for 2 minutes. The content of prostaglandin E2 in the reaction mixture was measured using Prostaglandin E2 ELISA Kit.

[2] = tested on: cyclooxygenase 2 mRNA; test: LPS-induced cyclooxygenase 2 mRNA synthesis in RAW264.7 cells (RT-PCR); format: cell-based; conditions: 50 μl of 10 mM solution per 5 ml, added 0 or 6 hours before LPS
Method: (2) RAW264.7 cells (ATCC TIB 71) were suspended in Dulbecco's modified Eagle's medium (Bio Whittaker, 12-604F) containing 10% fetal calf serum (Gibco) at a concentration of 3×10^5 cells/ml. 5 ml of the suspension was added to each well of a 6-well microtiter plate and the plate was incubated at 37° C. overnight in the presence of 5% CO2. 50 μl of a solution containing agarobiose or agarohexaose at a concentration of 10 mM in water was added to the well. The plate was incubated for 0 or 6 hours. 50 μl of a solution containing lipopolysaccharide (LPS, Sigma, L-2012) at a concentration of 100 μg/ml in water was added to the well. The plate was incubated for additional 5 hours. The culture supernatant was removed, and 1 ml of a solution of Catrimox-14 (a product of Iowa Biotechnology sold by Takara Shuzo, WA002) was added to the well. After pipetting, the solution was collected. An RNA was prepared according to the attached protocol. The RNA prepared as described above was subjected to RT-PCR using RNA-PCR Kit (AMV) Ver. 2.1 (Takara Shuzo, R019A). A reverse transcription reaction was conducted using a random primer (N6) (Takara Shuzo, 3801) at 30° C. for 10 minutes, at 42° C. for 30 minutes and 99° C. for 5 minutes. […]

[3] = tested on: HL-60 cells; test: Proliferation of HL-60 cells with or without hydroxyurea G1 arrest, WST-1; format: cell-based; conditions: read-out: IC50 (concentration at which 50% of the proliferation is inhibited)
Method: HL-60 cells (ATCC CCL-240) were suspended in RPMI 1640 medium (Bio Whittaker, 12-702F) containing 10% fetal calf serum (Gibco) and […] at a concentration of 5×10^5 cells/ml. 20 ml of the suspension was added to a 10-cm Petri dish. The dish was incubated at 37° C. overnight in the presence of 5% CO2 to make the cells arrest at G1 phase. The cells were collected by centrifugation and resuspended in RPMI 1640 medium containing 10% fetal calf serum (Gibco) and 100 μM hydroxyurea at a concentration of 5×10^5 cells/ml. 5 ml of the suspension was added to each well of a 6-well microtiter plate. On the other hand, as cells without the treatment with hydroxyurea, HL-60 cells were suspended in RPMI 1640 medium containing 10% fetal calf serum (Gibco) at a concentration of 1×10^5 cells/ml. 5 ml of the suspension was added to each well of a 6-well microtiter plate. 50 μl of a solution containing agarobiose at a concentration of 80, 60, 40 or 20 mM in water, or 50 μl of a solution containing the agarohexaose at a concentration of 80, 60, 40 or 20 mM in water was added to the well containing the cells treated with hydroxyurea. 50 μl of a solution containing agarobiose at a concentration of 40, 30, 20 or 10 mM in water, or 50 μl of a solution containing agarohexaose at a concentration of 40, 30, 20 or 10 mM in water was added to the well containing the cells without the treatment with hydroxyurea. The plate was incubated for additional 48 hours. Cells collected by centrifuging the culture were suspended in 5 ml of fresh RPMI 1640 medium containing 10% fetal calf serum (Gibco). 100 μl of the suspension was used for measuring the viable cell number using Premix WST-1 Cell Proliferation Assay System (Takara Shuzo, MK400).

Compound	production of prostaglandin E2 from arachidonic acid [1]	increase in the cyclooxygenase 2 mRNA synthesis induced by LPS [2]	IC50 ([3]; Cells treated with hydroxyurea (arrested at G1 phase), 48 hours) [µM]	IC50 ([3]; Cells without treatment with hydroxyurea, 48 hours) [µM]	IC50 ([3]; Homo sapiens, HL-60, 48 h, Cells treated with hydroxyurea (arrested at G1 phase)) [µM]	IC50 ([3]; Homo sapiens, HL-60, 48 h, Cells without treatment with hydroxyurea) [µM]
OC[C@H]1O[C@@H](O[C@H]2[C@H]3OC[C@@H]2OC(O)[C@H]3O)[C@H](O)[C@@H](O)[C@H]1O (mixture of isomers) [Agarobiose, agarobiose]	not suppressed	not suppressed	401	211		
OCC1OC(OC2C3COC2C(O)C(OC2C(O)C(CO)OC(OC4C5COC4C(O)C(OC4C(O)C(CO)OC(OC6C7COC6C(O)C(O)O7)C4O)O5)C2O)O3)C(O)C(O)C1O (centres unmarked) [Agarohexaose, agarohexaose]	not suppressed	not suppressed			383	205
